# “And” between values parts separate entries of the source, which are not always exact repeats. Identical values can stand only once.
# Key:
# EpiVaginal tissues = assay: macrophage infiltration in treated EpiVaginal tissues (barrier function), four hours in the presence of TNF-α; assay type: cell-based; conditions: vs. 28% into the untreated tissue; macrophages cultured with the tissue for four hours in the presence of TNF-α
# Source text: FIG. 1 is a graph showing macrophage infiltration in hormone (estrogen) and L759,633-treated EpiVaginal tissues. L759,633 had the most striking effect on macrophage infiltration: only 6% of cells infiltrated into the tissue past 90 μm (vs. 28% into the untreated tissue, p<0.006 ANOVA). […] U=untreated control; E=estradiol; P=progesterone; and IMG=the cannabinoid L759,633.
# Many of the above-noted genes are differentially regulated by estradiol in menopausal tissue. […] With respect to the barrier function, only 6% of macrophages which had been cultured with the tissue for four hours in the presence of TNF-α were capable of infiltrating into the tissue past 90 um (vs. 28% into the untreated tissue, p<0.006 ANOVA). […] This would indicate that the increased gene expression of the proteins involved with cross-linking of the keratin fibers, filagrins and desmosomal cadherins are all contributing to the fortification of the vaginal mucosa which would prevent the infiltration of pathogens and prevent the loss of solutes and water from within the tissue.
# [1] = molecular target: endocannabinoid receptor type 2 (CB2) (Homo sapiens, UniProt P34972); conditions: cited from earlier work
# endocannabinoid receptor type 2 (CB2), sequence (P34972 whole entry, species assumed): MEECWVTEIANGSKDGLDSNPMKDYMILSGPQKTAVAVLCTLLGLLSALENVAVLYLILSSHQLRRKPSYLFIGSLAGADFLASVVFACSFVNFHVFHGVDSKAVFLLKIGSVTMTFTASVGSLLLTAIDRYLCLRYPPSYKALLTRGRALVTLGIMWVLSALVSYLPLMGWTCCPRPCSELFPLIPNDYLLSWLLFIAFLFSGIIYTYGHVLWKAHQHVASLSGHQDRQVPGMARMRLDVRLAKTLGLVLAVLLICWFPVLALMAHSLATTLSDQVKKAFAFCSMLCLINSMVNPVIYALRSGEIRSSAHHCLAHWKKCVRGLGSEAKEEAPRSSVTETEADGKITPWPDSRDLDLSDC
# vaginal tissue construct = assay: microarray analysis of differential gene expression (Affymetrix Human Gene 1.0 ST arrays), tissues treated for seven days via culture medium; assay type: cell-based
# Source text: The data from the Affymetrix Human Gene 1.0 ST arrays were normalized using the Robust Multiarray Average (RMA) algorithm and a Chip Definition File (CDF) that maps the probes on the array to unique Entrez Gene identifiers. The result is a matrix in which each column corresponds to a sample. The expression values are log 2-transformed by default.
# By using a fold change >1.5, an analysis of differentially expressed genes was done to identify those genes which were involved in the cornified envelope, keratinocyte differentiation, cell differentiation, epidermis development, epithelial cell differentiation, junctional proteins and signaling, immune response and innate immune response.
# [2] = down-regulated by this fold, given without sign
compound,measurement,setting,value
"CCCCCCC(C)(C)c1cc(OC)c2c(c1)OC(C)(C)[C@@H]1CC=C(C)C[C@@H]21 [L759,633]",macrophages infiltrated into the tissue past 90 μm,EpiVaginal tissues,6%
same,agonist type by receptor internalization,[1],partial agonist
same,SPRR2D Fold Change,vaginal tissue construct,3.431 fold
same,WFDC12 Fold Change,vaginal tissue construct,7.884 fold
same,CFB down-regulation,vaginal tissue construct; [2],2.285 fold
same,CFH down-regulation,vaginal tissue construct; [2],1.769 fold
same,AGR2 Fold Change,vaginal tissue construct; gene Anterior gradient homolog 2 (Xenopus laevis),−3.1 fold
same,CXCL8 Expr Fold Change,vaginal tissue construct; gene C-X-C motif chemokine ligand 8,−2.298 fold
same,CXCL17 Expr Fold Change,vaginal tissue construct; gene C-X-C motif chemokine ligand 17,−2.038 fold
same,CXCR2 Expr Fold Change,vaginal tissue construct; gene C-X-C motif chemokine receptor 2,1.871 fold
same,CD14 Expr Fold Change,vaginal tissue construct; gene CD14 molecule,−2.154 fold
same,CD74 Expr Fold Change,vaginal tissue construct; gene CD74 molecule,−2.103 fold
same,CD151 Expr Fold Change,vaginal tissue construct; gene CD151 molecule (Raph blood group),−1.664 fold
same,CD244 Expr Fold Change,vaginal tissue construct; gene CD244 molecule,2.837 fold
same,CDSN Fold Change,vaginal tissue construct; gene Corneodesmosin,9.465 fold
same,CCL28 Expr Fold Change,vaginal tissue construct; gene C−C motif chemokine ligand 28,−2.504 fold
same,FYB1 Expr Fold Change,vaginal tissue construct; gene FYN binding protein 1,−2.604 fold
same,IFNE Fold Change,vaginal tissue construct; gene Interferon Epsilon,5.496 fold
same,IL19 Fold Change,vaginal tissue construct; gene Interleukin 19,−3.5 fold
same,NLRP10 Fold Change,vaginal tissue construct; gene NLR family pyrin domain containing 10,15.93 fold
same,RNAse7 Fold Change,vaginal tissue construct; gene RNAse family,8.158 fold
same,TIAM1 Expr Fold Change,vaginal tissue construct; gene T cell lymphoma invasion and metastasis 1,2.249 fold
same,TNFAIP8 Expr Fold Change,vaginal tissue construct; gene TNF alpha induced protein 8,−1.601 fold
same,TNFRSF10C Expr Fold Change,vaginal tissue construct; gene TNF receptor superfamily member 10c,−2.458 fold
same,TNFRSF11B Expr Fold Change,vaginal tissue construct; gene TNF receptor superfamily member 11b,−2.012 fold
same,TSPAN1 Fold Change,vaginal tissue construct; gene Tetraspanin 1,−2.3 fold
same,TGM1 Fold Change,vaginal tissue construct; gene Transglutaminase 1,1.966 fold
same,TGM3 Fold Change,vaginal tissue construct; gene Transglutaminase 3,30.074 fold and 30.1 fold
same,TGM5 Fold Change,vaginal tissue construct; gene Transglutaminase 5,2.237 fold
same,TRIM31 Fold Change,vaginal tissue construct; gene Tripartite motif-containing 31,−5.9 fold
same,VTCN1 Expr Fold Change,vaginal tissue construct; gene V-set domain containing T cell activation inhibitor 1,−4.666 fold
same,WFDC2 Fold Change,vaginal tissue construct; gene WAP four-disulfide core domain 2,−2.8 fold
same,WFDC5 Fold Change,vaginal tissue construct; gene WAP four-disulfide core domain 5,3.139 fold
same,ALOX12B Fold Change,"vaginal tissue construct; gene arachidonate 12-lipoxygenase, 12R type",6.6 fold and 6.683 fold
same,ALOX12 Fold Change,vaginal tissue construct; gene arachidonate 12-lipoygenase,1.5 fold
same,ALOXE3 Fold Change,vaginal tissue construct; gene arachidonate lipoxygenase 3,3.659 fold
same,ASS1 Fold Change,vaginal tissue construct; gene arginosuccinate synthetase 1,−2.8 fold
same,CLDN17 Fold Change,vaginal tissue construct; gene claudin 17,11 fold
same,CCDC59 Expr Fold Change,vaginal tissue construct; gene coiled-coil domain containing 59,−1.795 fold
same,CSF2RB Expr Fold Change,vaginal tissue construct; gene colony stimulating factor 2 receptor beta common subunit,2.79 fold
same,CFH Expr Fold Change,vaginal tissue construct; gene complement factor H,−1.769 fold
same,CNFN Fold Change,vaginal tissue construct; gene cornifelin,1.62 fold
same,CRCT1 Fold Change,vaginal tissue construct; gene cysteine-rich C-terminal 1,2.6 fold
same,DMKN Fold Change,vaginal tissue construct; gene dermokine,2.362 fold
same,DCS3 Fold Change,vaginal tissue construct; gene descmocollin 3,1.9 fold
same,DSC1 Fold Change,vaginal tissue construct; gene desmocollin 1,10.494 fold
same,DSC2 Fold Change,vaginal tissue construct; gene desmocollin 2,1.7 fold
same,DSG1 Fold Change,vaginal tissue construct; gene desmoglein 1,9.191 fold and 8.7 fold
same,FLG Fold Change,vaginal tissue construct; gene filaggrin,4.549 fold
same,FLG2 Fold Change,vaginal tissue construct; gene filaggrin family member 2,10.449 fold
same,GYS2 Fold Change,vaginal tissue construct; gene glycogen synthase 2 (liver),2.9 fold
same,KPRP Fold Change,vaginal tissue construct; gene human keratinocyte proline rich protein,25.318 fold and 25.3 fold
same,IFIT5 Expr Fold Change,vaginal tissue construct; gene interferon induced protein with tetratricopeptide repeats 5,−2.183 fold
same,IFIH1 Expr Fold Change,vaginal tissue construct; gene interferon induced with helicase C domain 1,−1.922 fold
same,IRF1 Expr Fold Change,vaginal tissue construct; gene interferon regulatory factor 1,−3.253 fold
same,IRF9 Expr Fold Change,vaginal tissue construct; gene interferon regulatory factor 9,−1.535 fold
same,IL1RL2 Expr Fold Change,vaginal tissue construct; gene interleukin 1 receptor like 2,2.508 fold
same,IL7R Expr Fold Change,vaginal tissue construct; gene interleukin 7 receptor,−2.852 fold
same,IL18BP Expr Fold Change,vaginal tissue construct; gene interleukin 18 binding protein,1.532 fold
same,IL23A Expr Fold Change,vaginal tissue construct; gene interleukin 23 subunit alpha,2.677 fold
same,IL33 Expr Fold Change,vaginal tissue construct; gene interleukin 33,−3.109 fold
same,IL36A Expr Fold Change,vaginal tissue construct; gene interleukin 36 alpha,4.185 fold
same,IL36RN Expr Fold Change,vaginal tissue construct; gene interleukin 36 receptor antagonist,4.668 fold
same,KLK6 Fold Change,vaginal tissue construct; gene kallikrein related peptidase 6,4.651 fold
same,KLK8 Fold Change,vaginal tissue construct; gene kallikrein related peptidase 8,1.842 fold
same,KLK10 Fold Change,vaginal tissue construct; gene kallikrein related peptidase 10,2.554 fold
same,KLK12 Fold Change,vaginal tissue construct; gene kallikrein related peptidase 12,3.933 fold
same,KLK13 Fold Change,vaginal tissue construct; gene kallikrein related peptidase 13,3.957 fold
same,KRT1 Fold Change,vaginal tissue construct; gene keratin 1,10.739 fold and 10.5 fold
same,KRT2 Fold Change,vaginal tissue construct; gene keratin 2,1.801 fold
same,KRT20 Fold Change,vaginal tissue construct; gene keratin 20,−3.42 fold
same,KRT23 Fold Change,vaginal tissue construct; gene keratin 23,1.912 fold
same,KRT24 Fold Change,vaginal tissue construct; gene keratin 24,1.619 fold
same,KRTDAP Fold Change,vaginal tissue construct; gene keratinocyte differentiation associated protein,15.751 fold and 15.7 fold
same,LCE1A Fold Change,vaginal tissue construct; gene late cornified envelope 1A,1.884 fold
same,LCE1C Fold Change,vaginal tissue construct; gene late cornified envelope 1C,4.063 fold
same,LCE1F Fold Change,vaginal tissue construct; gene late cornified envelope 1F,1.593 fold
same,LCE2A Fold Change,vaginal tissue construct; gene late cornified envelope 2A,6.392 fold
same,LCE2B Fold Change,vaginal tissue construct; gene late cornified envelope 2B,11.182 fold
same,LCE2C/LCE2D Fold Change,vaginal tissue construct; gene late cornified envelope 2D,24.247 fold
same,LCE3D Fold Change,vaginal tissue construct; gene late cornified envelope 3D,15.6 fold
same,LCE3E Fold Change,vaginal tissue construct; gene late cornified envelope 3E,16 fold
same,LCE5A Fold Change,vaginal tissue construct; gene late cornified envelope 5A,1.63 fold
same,LIPM Fold Change,vaginal tissue construct; gene lipase family member M,11.426 fold
same,LIPN Fold Change,vaginal tissue construct; gene lipase family member N,7.346 fold
same,LIPN1 Fold Change,vaginal tissue construct; gene lipin 1,3.775 fold
same,LOR Fold Change,vaginal tissue construct; gene loricrin,7.932 fold
same,LY6G6C Expr Fold Change,vaginal tissue construct; gene lymphocyte antigen 6 family member G6C,6.538 fold
same,HLA-C Expr Fold Change,"vaginal tissue construct; gene major histocompatibility complex, class C",−1.691 fold
same,HLA-B Expr Fold Change,"vaginal tissue construct; gene major histocompatibility complex, class I, B",−2.168 fold
same,HLA-DMB Expr Fold Change,"vaginal tissue construct; gene major histocompatibility complex, class II, DM beta",−1.591 fold
same,HLA-DPA1 Expr Fold Change,"vaginal tissue construct; gene major histocompatibility complex, class II, DP alpha 1",−1.7 fold
same,HLA-DRA Expr Fold Change,"vaginal tissue construct; gene major histocompatibility complex, class II, DR alpha",−2.792 fold
same,HLA-DRB6 Expr Fold Change,"vaginal tissue construct; gene major histocompatibility complex, class II, DR beta 6 (pseudogene)",−2.7 fold
same,ME1 Fold Change,"vaginal tissue construct; gene malic enzyme 1, NADP(+)-dependent cytosolic",2.9 fold
same,MUCL1 Fold Change,vaginal tissue construct; gene mucin like 1,~2 fold and 1.964 fold
same,NCR3LG1 Expr Fold Change,vaginal tissue construct; gene natural killer cell cytotoxicity receptor 3 ligand 1,2.482 fold
same,NFAT5 Expr Fold Change,vaginal tissue construct; gene nuclear factor of activated T cells 5,2.265 fold
same,OLFM4 Expr Fold Change,vaginal tissue construct; gene olfactomedin 4,−6.772 fold
same,PNLIPRP3 Fold Change,vaginal tissue construct; gene pancreatic lipase-related protein 3,1.6 fold
same,PLA2G2F Fold Change,vaginal tissue construct; gene phospholipase A2 group IIF,2.054 fold
same,PLA2G3 Fold Change,vaginal tissue construct; gene phospholipase A2 group III,2.218 fold
same,PLA2G4D Fold Change,vaginal tissue construct; gene phospholipase A2 group IVD,3.526 fold
same,PLA2G4E Fold Change,vaginal tissue construct; gene phospholipase A2 group IVE,3.36 fold
same,PLA2G10 Fold Change,vaginal tissue construct; gene phospholipase A2 group X,−3.027 fold
same,PLAC8 Fold Change,vaginal tissue construct; gene placenta-specific 8,−3.3 fold
same,PIGR Fold Change,vaginal tissue construct; gene polymeric immunoglobulin receptor,−2.4 fold
same,PDCD1LG2 Expr Fold Change,vaginal tissue construct; gene programmed cell death 1 ligand 2,−1.74 fold
same,RPS15A Expr Fold Change,vaginal tissue construct; gene ribosomal protein S15a,−1.78 fold
same,SERPINB12 Fold Change,vaginal tissue construct; gene serpin family B member 12,5.202 fold and 5.1 fold
same,STAT4 Expr Fold Change,vaginal tissue construct; gene signal transducer and activator of transcription 4,−2.518 fold
same,SPRR2G Fold Change,vaginal tissue construct; gene small proline rich protein 2G,10.387 fold
same,SPRR4 Fold Change,vaginal tissue construct; gene small proline rich protein 4,2.619 fold
same,SBSN Fold Change,vaginal tissue construct; gene suprabasin,4.36 fold and 4.3 fold
same,TLR3 Expr Fold Change,vaginal tissue construct; gene toll like receptor 3,−3.274 fold
same,TRPV3 Fold Change,vaginal tissue construct; gene transient receptor potential cation channel subfamily V member 3,2.8 fold and 2.804 fold
same,UBA7 Expr Fold Change,vaginal tissue construct; gene ubiquitin like modifier activating enzyme 7,−2.031 fold
same,VEGFA Fold Change,vaginal tissue construct; gene vascular endothelial growth factor A,2.0 fold and 1.885 fold
same,mir-23 Expr Fold Change,vaginal tissue construct; microRNA 23a,2.823 fold
same,mir-224 Expr Fold Change,vaginal tissue construct; microRNA 224,6.266 fold
same,MMP10 expression,vaginal tissue construct; result in words,downregulated

# From patent US11033527B2, “Non-hormonal treatment of the genitourinary syndrome of menopause” (IMMUGEN PHARMA LLC, priority 2018, dated 2021)
